From US12338237B2, “Derivatives having 1,2,3,4-tetrahydronaphthalene moiety or pharmaceutically acceptable salt thereof and pharmaceutical compositions comprising the same” (YUHAN CORPORATION, priority 2019, dated 2025)
Where two headings read alike, the source gives them in different places.

How the values were obtained:
GM1 production = experiment: cells; assay type: cell-based
[1] = biological target: glucosylceramide synthase (GCS) (Homo sapiens (Human), UniProt Q16739); experiment: Evaluation of inhibitory activities against GCS (enzyme reaction with A549 cell lysate, NBD C6-ceramide, HPLC fluorescence); assay type: biochemical; conditions: GCS activity in A549 cell lysate, 37° C. for 90 minutes
Chain of glucosylceramide synthase (GCS) (Q16739 whole entry, looked up): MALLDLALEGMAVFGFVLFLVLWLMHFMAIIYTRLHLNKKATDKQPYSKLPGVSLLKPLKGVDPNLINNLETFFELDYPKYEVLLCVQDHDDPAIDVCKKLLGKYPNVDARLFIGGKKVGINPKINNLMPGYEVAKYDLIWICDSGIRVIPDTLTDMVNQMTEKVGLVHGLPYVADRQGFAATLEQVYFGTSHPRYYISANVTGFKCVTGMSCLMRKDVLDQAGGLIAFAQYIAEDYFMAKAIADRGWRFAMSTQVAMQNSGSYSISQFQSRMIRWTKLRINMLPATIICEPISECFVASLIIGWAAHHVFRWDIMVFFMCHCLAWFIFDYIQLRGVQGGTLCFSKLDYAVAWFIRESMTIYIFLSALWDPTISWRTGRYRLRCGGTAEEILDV
Procedure, shortened: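 Lysate of A549 cells in 50 mM HEPES pH 7.3 incubated with test compound and NBD C6-ceramide at 37 °C for 90 min; lipids extracted with chloroform/methanol and GlcCer and ceramide peaks quantified by HPLC fluorescence. Activity from GlcCer area fraction, normalised between DMSO and ibiglustat controls.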

| Compound | IC50 (GM1 production; Homo sapiens, Jurkat, 72 h) [µM] | IC50 [1] [µM] | IC50 (GM1 production; read-out: IC50) [µM] |
| --- | --- | --- | --- |
| O=C(NC1CCCc2ccc(-c3cc(F)c(F)cc3F)cc21)O[C@@H]1CN2CCC1CC2 (stereo partly drawn) [Example 66, (S)-quinuclidin-3-yl (7-(2,4,5-trifluorophenyl)-1,2,3,4-tetrahydronaphthalen-1-yl)carbamate] | 0.103 | 0.0469 | – |
| CCCc1ccc(-c2cc3c(cc2OC)C(NC(=O)O[C@@H]2CN4CCC2CC4)C(C)(C)CC3)cc1 (stereo partly drawn) [Example 235, (S)-quinuclidin-3-yl (7-methoxy-2,2-dimethyl-6-(4-propylphenyl)-1,2,3,4-tetrahydronaphthalen-1-yl)carbamate] | 0.0032 | 0.00019 | – |
| CCCOc1c(C)cc(-c2cc3c(cc2OC)C(NC(=O)O[C@@H]2CN4CCC2CC4)C(C)(C)CC3)cc1C (stereo partly drawn) [Example 234, (S)-quinuclidin-3-yl (6-(3,5-dimethyl-4-propoxyphenyl)-7-methoxy-2,2-dimethyl-1,2,3,4-tetrahydronaphthalen-1-yl)carbamate] | 0.0149 | 0.00145 | – |
| Cc1cc(-c2ccc3c(c2)CCCC3NC(=O)O[C@@H]2CN3CCC2CC3)ccn1 (stereo partly drawn) [Example 50, (S)-quinuclidin-3-yl (6-(2-methylpyridin-4-yl)-1,2,3,4-tetrahydronaphthalen-1-yl)carbamate] | 2.19 | 0.0335 | – |
| CC(C)Oc1ccc(-c2ccc3c(c2)C(NC(=O)O[C@@H]2CN4CCC2CC4)CCC3)cc1 (stereo partly drawn) [Example 83, (S)-quinuclidin-3-yl (7-(4-isopropoxyphenyl)-1,2,3,4-tetrahydronaphthalen-1-yl)carbamate] | 0.387 | 0.0391 | – |
| CC1(C)CCc2cc(-c3ccccc3Cl)ccc2C1NC(=O)O[C@@H]1CN2CCC1CC2 (stereo partly drawn) [Example 95, (S)-quinuclidin-3-yl (6-(2-chlorophenyl)-2,2-dimethyl-1,2,3,4-tetrahydronaphthalen-1-yl)carbamate] | 0.000123 | 0.00085 | – |
| O=C(NC1CCCc2cc(-c3ccc(F)cc3F)ccc21)O[C@@H]1CN2CCC1CC2 (stereo partly drawn) [Example 18, (S)-quinuclidin-3-yl (6-(2,4-difluorophenyl)-1,2,3,4-tetrahydronaphthalen-1-yl)carbamate] | 0.0992 | 0.00541 | – |
| O=C(NC1CCCc2ccc(-c3ccncc3)cc21)O[C@@H]1CN2CCC1CC2 (stereo partly drawn) [Example 72, (S)-quinuclidin-3-yl (7-(pyridin-4-yl)-1,2,3,4-tetrahydronaphthalen-1-yl)carbamate] | 0.116 | 0.066 | – |
| CC1(C)CCc2cc(-c3ccnc(C(F)(F)F)c3)ccc2C1NC(=O)O[C@@H]1CN2CCC1CC2 (stereo partly drawn) [Example 119, (S)-quinuclidin-3-yl (2,2-dimethyl-6-(2-(trifluoromethyl)pyridin-4-yl)-1,2,3,4-tetrahydronaphthalen-1-yl) carbamate] | – | 0.0112 | 0.00186 |
| COCCOc1ccc(-c2ccc3c(c2)C(NC(=O)O[C@@H]2CN4CCC2CC4)CCC3)cc1 (stereo partly drawn) [Example 79, (S)-quinuclidin-3-yl (7-(4-(2-methoxyethoxy)phenyl)-1,2,3,4-tetrahydronaphthalen-1-yl)carbamate] | 0.0653 | 0.0129 | – |
| O=C(NC1CCCc2ccc(-c3cc(Cl)ccc3Cl)cc21)O[C@@H]1CN2CCC1CC2 (stereo partly drawn) [Example 71, (S)-quinuclidin-3-yl (7-(2,5-dichlorophenyl)-1,2,3,4-tetrahydronaphthalen-1-yl)carbamate] | 0.0954 | 0.0228 | – |
| CC1(C)CCc2cc(-c3ccc(OC(F)(F)F)cc3)ccc2C1NC(=O)O[C@@H]1CN2CCC1CC2 (stereo partly drawn) [Example 89, (S)-quinuclidin-3-yl (2,2-dimethyl-6-(4-(trifluoromethoxy)phenyl)-1,2,3,4-tetrahydronaphthalen-1-yl)carbamate] | 0.00779 | 0.0022 | – |
| O=C(NC1c2cc(-c3ccccc3Cl)ccc2CCC12CC2)O[C@@H]1CN2CCC1CC2 (stereo partly drawn) [Example 180, (S)-quinuclidin-3-yl (7′-(2-chlorophenyl)-3′,4′-dihydro-1′H-spiro[cyclopropane-1,2′-naphthalen]-1′-yl)carbamate] | 0.0991 | 0.00954 | – |
| O=C(NC1CCCc2cc(-c3ccc4c(c3)OC(F)(F)O4)ccc21)O[C@@H]1CN2CCC1CC2 (stereo partly drawn) [Example 42, (S)-quinuclidin-3-yl (6-(2,2-difluorobenzo[d][1,3]dioxol-5-yl)-1,2,3,4-tetrahydronaphthalen-1-yl)carbamate] | 0.21 | 0.00671 | – |
| O=C(NC1c2cc(-c3cccc(C(F)(F)F)c3)ccc2CCC12CC2)O[C@@H]1CN2CCC1CC2 (stereo partly drawn) [Example 177, (S)-quinuclidin-3-yl (7′-(3-(trifluoromethyl)phenyl)-3′,4′-dihydro-1′H-spiro[cyclopropane-1,2′-naphthalen]-1′-yl)carbamate] | 0.17 | 0.0235 | – |
| (S)-quinuclidin-3-yl (7-(3-(chlorophenyl)-1,2,3,4-tetrahydronaphthalen-1-yl)carbamate [Example 59] | – | 0.0189 | 0.153 |

| Compound | IC50 (GM1 production; Homo sapiens, Jurkat, 72 h) [µM] | IC50 [1] [µM] | IC50 (GM1 production; read-out: IC50) [µM] |
| --- | --- | --- | --- |
| COc1ccc(-c2ccc3c(c2)CCC(C)(C)C3NC(=O)O[C@@H]2CN3CCC2CC3)cc1 (stereo partly drawn) [Example 120, (S)-quinuclidin-3-yl (6-(4-methoxyphenyl)-2,2-dimethyl-1,2,3,4-tetrahydronaphthalen-1-yl)carbamate] | 0.00183 | 0.00565 | – |
| O=C(NC1c2ccc(-c3cccc(C(F)F)c3)cc2CCC12CC2)O[C@@H]1CN2CCC1CC2 (stereo partly drawn) [Example 206, (S)-quinuclidin-3-yl (6′-(3-(difluoromethyl)phenyl)-3′,4′-dihydro-1′H-spiro[cyclopropane-1,2′-naphthalen]-1′-yl)carbamate] | 0.0152 | 0.0102 | – |
| COCCOc1ccccc1-c1ccc2c(c1)C(NC(=O)O[C@@H]1CN3CCC1CC3)C(C)(C)CC2 (stereo partly drawn) [Example 167, (S)-quinuclidin-3-yl (7-(2-(2-methoxyethoxy)phenyl)-2,2-dimethyl-1,2,3,4-tetrahydronaphthalen-1-yl)carbamate] | 0.103 | 0.0196 | – |
| COc1cc(-c2ccc3c(c2)CCC(C)(C)C3NC(=O)O[C@@H]2CN3CCC2CC3)ccn1 (stereo partly drawn) [Example 116, (S)-quinuclidin-3-yl (6-(2-methoxypyridin-4-yl)-2,2-dimethyl-1,2,3,4-tetrahydronaphthalen-1-yl)carbamate] | 0.00776 | 0.00862 | – |
| COCOc1cccc(-c2ccc3c(c2)CCCC3NC(=O)O[C@@H]2CN3CCC2CC3)c1 (stereo partly drawn) [Example 28, (S)-quinuclidin-3-yl (6-(3-(methoxymethoxy)phenyl)-1,2,3,4-tetrahydronaphthalen-1-yl)carbamate] | 0.00531 | 0.00133 | – |
| CC1(C)CCc2ccc(-c3cccc(C(F)(F)F)c3)cc2C1NC(=O)O[C@@H]1CN2CCC1CC2 (stereo partly drawn) [Example 157, (S)-quinuclidin-3-yl (2,2-dimethyl-7-(3-(trifluoromethyl)phenyl)-1,2,3,4-tetrahydronaphthalen-1-yl)carbamate] | 0.12 | 0.0322 | – |
| O=C(NC1CCCc2ccc(-c3ccc(F)c(F)c3)cc21)O[C@@H]1CN2CCC1CC2 (stereo partly drawn) [Example 64, (S)-quinuclidin-3-yl (7-(3,4-difluorophenyl)-1,2,3,4-tetrahydronaphthalen-1-yl)carbamate] | 0.131 | 0.013 | – |
| O=C(NC1c2cc(-c3cccc(Cl)c3)ccc2CCC12CC2)O[C@@H]1CN2CCC1CC2 (stereo partly drawn) [Example 176, (S)-quinuclidin-3-yl (7′-(3-chlorophenyl)-3′,4′-dihydro-1′H-spiro[cyclopropane-1,2′-naphthalen]-1′-yl)carbamate] | 0.211 | 0.0149 | – |
| O=C(NC1CCCc2cc(-c3cccc(OC(F)(F)F)c3)ccc21)O[C@@H]1CN2CCC1CC2 (stereo partly drawn) [Example 8, (S)-quinuclidin-3-yl (6-(3-(trifluoromethoxy)phenyl)-1,2,3,4-tetrahydronaphthalen-1-yl)carbamate] | 0.0124 | 0.0021 | – |
| O=C(NC1c2ccc(-c3ccc(C4CC4)cc3)cc2CCC12CC2)O[C@@H]1CN2CCC1CC2 (stereo partly drawn) [Example 226, (S)-quinuclidin-3-yl (6′-(4-cyclopropylphenyl)-3′,4′-dihydro-1′H-spiro[cyclopropane-1,2′-naphthalen]-1′-yl)carbamate] | 0.0108 | 0.00093 | – |
| CC(C)c1cccc(-c2ccc3c(c2)CCCC3NC(=O)O[C@@H]2CN3CCC2CC3)c1 (stereo partly drawn) [Example 40, (S)-quinuclidin-3-yl (6-(3-isopropylphenyl)-1,2,3,4-tetrahydronaphthalen-1-yl)carbamate] | 0.218 | 0.00177 | – |
| COCOc1ccc(-c2ccc3c(c2)CCC(C)(C)C3NC(=O)O[C@@H]2CN3CCC2CC3)cc1 (stereo partly drawn) [Example 113, (S)-quinuclidin-3-yl (6-(4-(methoxymethoxy)phenyl)-2,2-dimethyl-1,2,3,4-tetrahydronaphthalen-1-yl)carbamate] | 0.000964 | 0.00094 | – |
| CC1(C)CCc2cc(-c3cc(F)c(F)cc3F)ccc2C1NC(=O)O[C@@H]1CN2CCC1CC2 (stereo partly drawn) [Example 108, (S)-quinuclidin-3-yl (2,2-dimethyl-6-(2,4,5-trifluorophenyl)-1,2,3,4-tetrahydronaphthalen-1-yl)carbamate] | 0.0067 | 0.00255 | – |
| CCCOc1c(C)cc(-c2cc3c(cc2F)C(NC(=O)O[C@@H]2CN4CCC2CC4)C(C)(C)CC3)cc1C (stereo partly shown) [Example 228] | – | 0.00134 | 0.0125 |
| O=C(NC1c2cc(-c3ccc(OC(F)(F)F)cc3)ccc2CCC12CC2)O[C@@H]1CN2CCC1CC2 (stereo partly drawn) [Example 174, (S)-quinuclidin-3-yl (7′-(4-(trifluoromethoxy)phenyl)-3′,4′-dihydro-1′H-spiro[cyclopropane-1,2′-naphthalen]-1′-yl)carbamate] | 0.0393 | 0.00435 | – |
| CCCc1ccc(-c2ccc3c(c2)CCC2(CC2)C3NC(=O)O[C@@H]2CN3CCC2CC3)cc1 (stereo partly drawn) [Example 222, (S)-quinuclidin-3-yl (6′-(4-propylphenyl)-3′,4′-dihydro-1′H-spiro[cyclopropane-1,2′-naphthalen]-1′-yl)carbamate] | 0.0093 | 0.00075 | – |
